Experimental data reported in patent US8466169B2, “SF5 derivatives as PAR1 inhibitors, production thereof, and use as medicaments” (Sanofi, priority 2008, dated 2013).

What follows are molecules tested against T1, PAR1 (Homo sapiens, UniProt P25116) (assay: Inhibition of PAR1-mediated platelet aggregation induced by TRAP). Conditions: washed platelets from healthy volunteer donors, TRAP (thrombin receptor-activating peptide) as agonist, 96-well format, AUC at 650 nm.
T1 sequence (P25116 22-425): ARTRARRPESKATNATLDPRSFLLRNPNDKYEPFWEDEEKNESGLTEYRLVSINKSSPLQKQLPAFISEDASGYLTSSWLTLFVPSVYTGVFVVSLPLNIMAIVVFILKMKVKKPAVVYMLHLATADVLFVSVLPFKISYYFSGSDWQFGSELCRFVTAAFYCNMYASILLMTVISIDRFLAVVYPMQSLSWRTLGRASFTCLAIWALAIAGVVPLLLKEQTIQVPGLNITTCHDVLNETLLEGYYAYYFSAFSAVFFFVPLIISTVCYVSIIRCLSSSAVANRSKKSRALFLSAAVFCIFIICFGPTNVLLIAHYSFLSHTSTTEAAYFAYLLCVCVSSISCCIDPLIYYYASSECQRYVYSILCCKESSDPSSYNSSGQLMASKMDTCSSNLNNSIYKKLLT
Format: cell-based
Parameters: endogenous in cells; host or cells: washed human blood platelets from volunteer donors
Method: Inhibition of PAR1-Mediated Platelet Aggregation
The biological testing of the substances took place in platelet aggregation induced by TRAP (thrombin receptor-activating peptide) in 96-well format. For this purpose, blood was taken from healthy volunteer donors in 20 ml syringes containing 2 ml of 3.13% sodium citrate solution. After centrifugation at 150×g for 20 minutes, the platelet-rich plasma (PRP) was separated off and admixed with 1 μl of PGE1 solution (500 μg/ml in ethanol)/ml of PRP. Incubation at RT for 5 minutes was followed by centrifugation at 120×g for 15 minutes to remove the leukocytes. The leukocyte-free PRP was transferred in 5 ml portions into 15 ml PP tubes and centrifuged at 360×g for 15 minutes in order to pellet the platelets. The plasma was then decanted off and the platelet sediment from 5 ml of PRP was resuspended in 1 ml of Tyrode's (120 mM NaCl, 2.6 mM KCl, 12 mM NaHCO3, 0.39 mM NaH2PO4×H2O, 10 mM HEPES, 0.35% BSA, 5.5 mM glucose, pH 7.4) and adjusted with Tyrode's to a platelet count of 3×10^5/microliter (μl). 13 ml of this cell suspension were then mixed with 866 μl of 10 mM CaCl2 solution, and 120 μl thereof were pipetted into each well of a 96-well plate containing 15 μl of the substance to be tested. After incubation at RT in the dark for 30 minutes, 15 μl of a TRAP solution (70-100 μM) were added as agonist, and kinetics were recorded at 650 nm in a SpectraMax 340 at 37° C. for 20 minutes while shaking. The areas under the curves of negative control (Tyrode's/DMSO) and positive control (15 μl of agonist/DMSO) were calculated and the difference was fixed as the 100% value. The substances to be tested were pipetted as serial dilutions in duplicate determination, the AUC was likewise determined for each substance concentration, and the % inhibition of the AUC compared with the control was calculated. On the basis of the % inhibition, the IC50 was calculated by nonlinear regression analysis according to the 4-parameter equation.

IC50 | SMILES
597 nM | CCOc1cc2c(cc1C(=O)NC)C(=N)N(CC(=O)c1cc(N(C)C)cc(S(F)(F)(F)(F)F)c1)C2 [Example 2, N-Methyl-2-[2-(3-dimethylamino-5-pentafluorosulfanylphenyl)-2-oxoethyl]-6-ethoxy-3-imino-2,3-dihydro-1H-isoindole-5-carboxamide]
2 nM | CCOc1cc2c(cc1C(=O)NC)C(=N)N(CC(=O)c1cc(NC)cc(S(F)(F)(F)(F)F)c1)C2 [Example 3, N-Methyl-6-ethoxy-3-imino-2-[2-(3-methylamino-5-pentafluorosulfanylphenyl)-2-oxoethyl]-2,3-dihydro-1H-isoindole-5-carboxamide]
17 nM | CCOc1cc2c(cc1C(=O)NC)C(=N)N(CC(=O)c1cc(NC(C)=O)cc(S(F)(F)(F)(F)F)c1)C2 [Example 8, N-Methyl-2-[2-(3-acetylamino-5-pentafluorosulfanylphenyl)-2-oxoethyl]-6-ethoxy-3-imino-2,3-dihydro-1H-isoindole-5-carboxamide]
718 nM | CCOc1cc2c(cc1C(=O)NC)C(=N)N(CC(=O)c1cc(N(S(C)(=O)=O)S(C)(=O)=O)cc(S(F)(F)(F)(F)F)c1)C2 [Example 10, N-Methyl-6-ethoxy-3-imino-2-{2-[3-dimethanesulfonylamino-5-(pentafluorosulfanyl)phenyl]-2-oxoethyl}-2,3-dihydro-1H-isoindole-5-carboxamide]
387 nM | CCOc1cc2c(c(F)c1OCC)C(=N)N(CC(=O)c1cc(N(C)C(C)=O)cc(S(F)(F)(F)(F)F)c1)C2 [Example 12, N-[3-[2-(5,6-diethoxy-7-fluoro-1-imino-1,3-dihydroisoindol-2-yl)acetyl]-5-(pentafluorosulfanyl)phenyl]-N-methylacetamide]
10600 nM | CCOc1cc2c(c(F)c1OCC)C(=N)N(CC(=O)c1cc(N)c(S(F)(F)(F)(F)F)cc1C)C2 [Example 16, 1-[5-Amino-2-methyl-4-(pentafluorosulfanyl)phenyl]-2-(5,6-diethoxy-7-fluoro-1-imino-1,3-dihydroisoindol-2-yl)ethanone]
175 nM | CCOc1cc2c(c(F)c1OCC)C(=N)N(CC(=O)c1cc(N3C(=O)CCC3=O)cc(S(F)(F)(F)(F)F)c1)C2 [Example 18, 1-{3-[2-(5,6-Diethoxy-7-fluoro-1-imino-1,3-dihydroisoindol-2-yl)acetyl]-5-pentafluorosulfanylphenyl}pyrrolidine-2,5-dione]
98 nM | CCOc1cc2c(c(F)c1OCC)C(=N)N(CC(=O)c1ccc(S(F)(F)(F)(F)F)cc1N)C2 [Example 19, 1-[2-Amino-4-(pentafluorosulfanyl)phenyl]-2-(5,6-diethoxy-7-fluoro-1-imino-1,3-dihydroisoindol-2-yl)ethanone]
28 nM | CCOc1cc2c(c(F)c1OCC)C(=N)N(CC(=O)c1cc(OC)cc(S(F)(F)(F)(F)F)c1)C2 [Example 21, 2-(5,6-Diethoxy-7-fluoro-1-imino-1,3-dihydroisoindol-2-yl)-1-[3-methoxy-5-(pentafluorosulfanyl)phenyl]ethanone]

These molecules were tested against T1, PAR1 (assay: PAR1 binding test (radioligand displacement, membrane preparation)). Conditions: human PAR1 receptor expressed in High Five insect cells, membrane 1 mg/ml, radioligand 20 nM, 60 minutes; read-out: Inhibition of binding IC50.
Parameters: expressed in transfected cells; host or cells: High Five insect cells (transient expression), membrane preparation
Method: The synthesized substances were examined in a PAR1 binding test. This tested whether the substances can inhibit the binding of a radioactively labeled PAR1 agonist known from the literature at the PAR1 receptor (Ho-Sam Ahn, Mol Pharm, 51:350-356, 1997).
The human PAR1 receptor was expressed transiently in High Five insect cells. From these cells, after 48 hours, a membrane preparation was produced by standard methods, aliquoted into 10 mM Tris-HCl; 0.3 mM EDTA; 1 mM EGTA; 250 mM sucrose pH 7.5, and stored at −80° C.
The substances were preincubated with the membrane at RT for 15 minutes, then the radioligand (ALA-(para-F-Phe)-Arg-ChA-homoArg-(3,4-^3H-Tyr)-NH2; approx. 40 Ci/mMol) was added. The end concentration of the radioligand in the test buffer (50 mM Tris-HCl; 10 mM MgCl2; 1 mM EGTA; 0.1% BSA; 2% DMSO) was 20 nM, that of the membrane 1 mg/ml. After an incubation time of 60 minutes, 25 μl of the mixture were transferred to a 96-well MultiScreenHTS FB microtiter filtration plate (from Millipore), which had been pretreated beforehand with a 0.75% aqueous polyethyleneimine solution for 5 hours at RT. Thereafter, with vacuum extraction, each well was washed four times with 300 μl of buffer (50 mM Tris-HCl; 10 mM MgCl2; 1 mM EGTA). The plate was then dried overnight, 100 μl of scintillator per well were added, and the plate was analyzed after 6 hours in a Wallac MicroBeta (from PerkinElmer) liquid scintillation counter. The nonspecific binding was determined in the presence of 100 μM SCH79797 (PAR-1 antagonist; from Tocris, Cat. No. 1592) and subtracted from all measurements. The 100% value used was a control without inhibitor. The % inhibition values of a substance dilution series were used to calculate the IC50 with the aid of nonlinear regression analysis according to the 4-parameter equation.

IC50 | SMILES
4800 nM | CCOc1cc2c(cc1C(=O)NC)C(=N)N(CC(=O)c1cc(NC(=O)C(F)(F)F)cc(S(F)(F)(F)(F)F)c1)C2 [Example 4, N-Methyl-6-ethoxy-3-imino-2-{2-[3-pentafluorosulfanyl-5-(2,2,2-trifluoroacetylamino)phenyl]-2-oxoethyl}-2,3-dihydro-1H-isoindole-5-carboxamide]
227 nM | CCOc1cc2c(c(F)c1OCC)C(=N)N(CC(=O)c1cc(NC(C)=O)cc(S(F)(F)(F)(F)F)c1)C2 [Example 14]
360 nM | CCOc1cc2c(c(F)c1OCC)C(=N)N(CC(=O)c1cc(NC(=O)CC(C)(C)C)cc(S(F)(F)(F)(F)F)c1)C2 [Example 17, N-{3-[2-(5,6-Diethoxy-7-fluoro-1-imino-1,3-dihydroisoindol-2-yl)acetyl]-5-pentafluorosulfanylphenyl}-3,3-dimethylbutyramide]
128 nM | CCOc1cc2c(c(F)c1OCC)C(=N)N(CC(=O)c1cc(Br)c(S(F)(F)(F)(F)F)cc1N)C2 [Example 20, 1-[2-Amino-5-bromo-4-(pentafluorosulfanyl)phenyl]-2-(5,6-diethoxy-7-fluoro-1-imino-1,3-dihydroisoindol-2-yl)ethanone]
512 nM | CCOc1cc(C(=O)CN2Cc3cc(OCC)c(OCC)c(F)c3C2=N)cc(S(F)(F)(F)(F)F)c1 [Example 24, 2-(5,6-Diethoxy-7-fluoro-1-imino-1,3-dihydroisoindol-2-yl)-1-[3-ethoxy-5-(pentafluorosulfanyl)phenyl]ethanone]
1700 nM | CCOc1cc2c(c(F)c1OCC)C(=N)N(CC(=O)c1cc(Cl)cc(S(F)(F)(F)(F)F)c1)C2 [Example 27, 1-[3-Chloro-5-(pentafluorosulfanyl)phenyl]-2-(5,6-diethoxy-7-fluoro-1-imino-1,3-dihydroisoindol-2-yl)ethanone]
225 nM | CCOc1cc2c(c(F)c1OCC)C(=N)N(CC(=O)c1cc(N3CCOCC3)cc(S(F)(F)(F)(F)F)c1)C2 [Example 30, 2-(5,6-Diethoxy-7-fluoro-1-imino-1,3-dihydroisoindol-2-yl)-1-[3-morpholin-4-yl-5-(pentafluorosulfanyl)phenyl]ethanone]
